26 compounds from patent US7125990B2, “Imidazolyl derivatives as corticotropin releasing factor inhibitors” (Bristol-Myers Squibb COmpany, priority 2001, dated 2006) can be followed below.

The assay addresses T1, CRF1 receptors (Homo sapiens, UniProt P34998).
T1 construct: endogenous in cells; host or cells: IMR-32 cells, transformed with 2.5 µM 5'-bromo-2'-deoxyuridine for 10 days; membrane preparation
T1 sequence (P34998 24-415): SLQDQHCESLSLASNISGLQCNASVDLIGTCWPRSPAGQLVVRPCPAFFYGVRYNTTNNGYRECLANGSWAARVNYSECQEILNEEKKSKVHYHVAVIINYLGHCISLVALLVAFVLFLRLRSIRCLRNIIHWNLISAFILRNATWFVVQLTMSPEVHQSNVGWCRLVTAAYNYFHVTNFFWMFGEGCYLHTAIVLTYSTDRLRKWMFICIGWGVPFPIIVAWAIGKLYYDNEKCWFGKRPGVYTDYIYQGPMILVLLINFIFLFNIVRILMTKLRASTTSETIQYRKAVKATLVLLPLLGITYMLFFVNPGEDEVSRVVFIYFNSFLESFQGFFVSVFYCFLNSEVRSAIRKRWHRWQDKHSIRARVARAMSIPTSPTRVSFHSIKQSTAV
The assay can be described thus: CRF1 receptor radioligand binding assay ([125I]-oCRF competition, IMR-32 cell membranes). To be noted: IMR-32 cell membranes, [125I]-oCRF 100 pM; read-out: Ki (CRF-1R). In outline: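 Buffer: Tris pH 7.2 with MgCl2, BSA, Triton X-100, aprotinin, leupeptin; reaction stopped with ice-cold wash and filtered. Nonspecific binding set with 10 μM oCRF.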
Turning to `FC(F)(F)c1nc2n(-c3ccc(Cl)cc3Cl)c3ccccc3n2c1CN(CC1CC1)CC(F)(F)C(F)(F)F` [Example 183, Cyclopropylmethyl-[8-(2,4-dichloro-phenyl)-2-trifluoromethyl-8H-1,3a,8-triaza-cyclopenta[α]inden-3-ylmethyl]-(2,2,3,3,3-pentafluoro-propyl)-amine], the Ki – broadly, a measure of affinity in units of concentration, obtained from inhibition or displacement – is under 10 µM. Under `C=CCN(CC=C)Cc1c(C(F)(F)F)nc2n(-c3ccc(Cl)cc3Cl)c3ccccc3n12` [Example 184, Diallyl-[8-(2,4-dichloro-phenyl)-2-trifluoromethyl-8H-1,3a,8-triaza-cyclopenta[α]inden-3-ylmethyl]-amine] stands under 10 µM; under `FC(F)(F)CN(Cc1c(C(F)(F)F)nc2n(-c3ccc(Cl)cc3Cl)c3ccccc3n12)CC1CCC1` [Example 185, Cyclobutylmethyl-[8-(2,4-dichloro-phenyl)-2-trifluoromethyl-8H-1,3a,8-triaza-cyclopenta[α]inden-3-ylmethyl]-(2,2,2-trifluoro-ethyl)-amine], under 10 µM. The result for `CCCN(Cc1c(C(F)(F)F)nc2n(-c3ccc(Cl)cc3Cl)c3ccccc3n12)CC1CCC1` [Example 186, Cyclobutylmethyl-[8-(2,4-dichloro-phenyl)-2-trifluoromethyl-8H-1,3a,8-triaza-cyclopenta[α]inden-3-ylmethyl]-propyl-amine] reads under 10 µM; that for `CC(C)c1ccc(-n2c3ccccc3n3c(CN(CC4CC4)CC4CC4)c(C(F)(F)F)nc23)c(Br)c1` [Example 187, [8-(2-Bromo-4-isopropyl-phenyl)-2-trifluoromethyl-8H-1,3a,8-triaza-cyclopenta[α]inden-3-ylmethyl]-bis-cyclopropylmethyl-amine], under 0.1 µM; that for `CC(C)c1ccc(-n2c3ccccc3n3c(CN(CC4CC4)CC(F)(F)F)c(C(F)(F)F)nc23)c(Br)c1` [Example 188, [8-(2-Bromo-4-isopropyl-phenyl)-2-trifluoromethyl-8H-1,3a,8-triaza-cyclopenta[α]inden-3-ylmethyl]-cyclopropylmethyl-(2,2,2-trifluoro-ethyl)-amine], under 0.1 µM. The result for `CC(C)c1ccc(-n2c3ccccc3n3c(CN(CCC(F)(F)F)CC4CC4)c(C(F)(F)F)nc23)c(Br)c1` [Example 189, [8-(2-Bromo-4-isopropyl-phenyl)-2-trifluoromethyl-8H-1,3a,8-triaza-cyclopenta[α]inden-3-ylmethyl]-cyclopropylmethyl-(3,3,3-trifluoro-propyl)-amine] reads under 1 µM. On to `CCN(Cc1c(C(F)(F)F)nc2n(-c3ccc(C(C)C)cc3Br)c3ccccc3n12)CC1CC1` [Example 190, [8-(2-Bromo-4-isopropyl-phenyl)-2-trifluoromethyl-8H-1,3a,8-triaza-cyclopenta[α]inden-3-ylmethyl]-cyclopropylmethyl-ethyl-amine], for which the Ki was under 1 µM.

As for `CC(C)c1ccc(-n2c3ccccc3n3c(CN(CC4CC4)CC(F)(F)C(F)(F)F)c(C(F)(F)F)nc23)c(Br)c1` [Example 191, [8-(2-Bromo-4-isopropyl-phenyl)-2-trifluoromethyl-8H-1,3a,8-triaza-cyclopenta[α]inden-3-ylmethyl]-cyclopropylmethyl-(2,2,3,3,3-pentafluoro-propyl)-amine], the Ki is under 1 µM. The result for `C=CCN(CC=C)Cc1c(C(F)(F)F)nc2n(-c3ccc(C(C)C)cc3Br)c3ccccc3n12` [Example 192, Diallyl-[8-(2-bromo-4-isopropyl-phenyl)-2-trifluoromethyl-8H-1,3a,8-triaza-cyclopenta[α]inden-3-ylmethyl]-amine] reads under 1 µM; that for `CCCN(CCc1ccccc1)Cc1c(C(F)(F)F)nc2n(-c3ccc(C(C)C)cc3Br)c3ccccc3n12` [Example 193, [8-(2-Bromo-4-isopropyl-phenyl)-2-trifluoromethyl-8H-1,3a,8-triaza-cyclopenta[α]inden-3-ylmethyl]-phenethyl-propyl-amine], under 1 µM. The result for `CC(C)c1ccc(-n2c3ccccc3n3c(CN(CC4CCC4)CC(F)(F)F)c(C(F)(F)F)nc23)c(Br)c1` [Example 194, [8-(2-Bromo-4-isopropyl-phenyl)-2-trifluoromethyl-8H-1,3a,8-triaza-cyclopenta[α]inden-3-ylmethyl]-cyclobutylmethyl-(2,2,2-trifluoro-ethyl)-amine] reads under 1 µM; that for `CCCN(Cc1c(C(F)(F)F)nc2n(-c3ccc(C(C)C)cc3Br)c3ccccc3n12)CC1CCC1` [Example 195, [8-(2-Bromo-4-isopropyl-phenyl)-2-trifluoromethyl-8H-1,3a,8-triaza-cyclopenta[α]inden-3-ylmethyl]-cyclobutylmethyl-propyl-amine], under 1 µM; that for `CCN(CCc1ccccc1)Cc1c(C(F)(F)F)nc2n(-c3ccc(C(C)C)cc3Br)c3ccccc3n12` [Example 196, [8-(2-Bromo-4-isopropyl-phenyl)-2-trifluoromethyl-8H-1,3a,8-triaza-cyclopenta[α]inden-3-ylmethyl]-ethyl-phenethyl-amine], under 1 µM. The result for `CCCN(CCC(F)(F)F)Cc1c(C(F)(F)F)nc2n(-c3ccc(C(C)C)cc3Br)c3ccccc3n12` [Example 197, [8-(2-Bromo-4-isopropyl-phenyl)-2-trifluoromethyl-8H-1,3a,8-triaza-cyclopenta[α]inden-3-ylmethyl]-propyl-(3,3,3-trifluoro-propyl)-amine] reads under 1 µM; that for `C=CCN(CCC)Cc1c(C(F)(F)F)nc2n(-c3ccc(C(C)C)cc3Br)c3ccccc3n12` [Example 198, Allyl-[8-(2-bromo-4-isopropyl-phenyl)-2-trifluoromethyl-8H-1,3a,8-triaza-cyclopenta[α]inden-3-ylmethyl]-propyl-amine], under 1 µM; that for `CC(C)c1ccc(-n2c3ccccc3n3c(CN(CCC(F)(F)F)Cc4ccc(F)cc4)c(C(F)(F)F)nc23)c(Br)c1` [Example 199, [8-(2-Bromo-4-isopropyl-phenyl)-2-trifluoromethyl-8H-1,3a,8-triaza-cyclopenta[α]inden-3-ylmethyl]-(4-fluoro-benzyl)-(3,3,3-trifluoro-propyl)-amine], under 10 µM. For the compound `CCCN(Cc1c(C(F)(F)F)nc2n(-c3ccc(C(C)C)cc3Br)c3ccccc3n12)CC(F)(F)F` [Example 200, [8-(2-Bromo-4-isopropyl-phenyl)-2-trifluoromethyl-8H-1,3a,8-triaza-cyclopenta[α]inden-3-ylmethyl]-propyl-(2,2,2-trifluoro-ethyl)-amine], the Ki is under 10 µM.

Consider `CC(C)c1ccc(-n2c3ccccc3n3c(CN(CCc4ccccc4)CC(F)(F)F)c(C(F)(F)F)nc23)c(Br)c1` [Example 201, [8-(2-Bromo-4-isopropyl-phenyl)-2-trifluoromethyl-8H-1,3a,8-triaza-cyclopenta[α]inden-3-ylmethyl]-phenethyl-(2,2,2-trifluoro-ethyl)-amine], for which the Ki is under 10 µM.

Take `CC(C)c1ccc(-n2c3ccccc3n3c(CN(CCC(F)(F)F)Cc4ccccc4)c(C(F)(F)F)nc23)c(Br)c1` [Example 202, Benzyl-[8-(2-bromo-4-isopropyl-phenyl)-2-trifluoromethyl-8H-1,3a,8-triaza-cyclopenta[α]inden-3-ylmethyl]-(3,3,3-trifluoro-propyl)-amine]: the Ki is under 10 µM. Under `CCCCN(CC)Cc1c(C(F)(F)F)nc2n(-c3ccc(C(C)C)cc3Br)c3ccccc3n12` [Example 203, [8-(2-Bromo-4-isopropyl-phenyl)-2-trifluoromethyl-8H-1,3a,8-triaza-cyclopenta[α]inden-3-ylmethyl]-butyl-ethyl-amine] stands under 10 µM. The result for `CC(C)c1ccc(-n2c3ccccc3n3c(CN(CCC4CC4)CC(F)(F)F)c(C(F)(F)F)nc23)c(Br)c1` [Example 204, [8-(2-Bromo-4-isopropyl-phenyl)-2-trifluoromethyl-8H-1,3a,8-triaza-cyclopenta[α]inden-3-ylmethyl]-(2-cyclopropyl-ethyl)-(2,2,2-trifluoro-ethyl)-amine] reads under 10 µM; that for `CCCN(Cc1c(C(F)(F)F)nc2n(-c3ccc(C(C)C)cc3Br)c3ccccc3n12)CC(F)(F)C(F)(F)F` [Example 205, [8-(2-Bromo-4-isopropyl-phenyl)-2-trifluoromethyl-8H-1,3a,8-triaza-cyclopenta[α]inden-3-ylmethyl]-(2,2,3,3,3-pentafluoro-propyl)-propyl-amine], under 10 µM.

In the case of `CCCN(CCC)Cc1c(C(F)(F)F)nc2n(-c3ccc(C(C)C)cc3Br)c3ccccc3n12` [Example 206, [8-(2-Bromo-4-isopropyl-phenyl)-2-trifluoromethyl-8H-1,3a,8-triaza-cyclopenta[α]inden-3-ylmethyl]-dipropyl-amine], the Ki is under 10 µM.

Regarding `CCN(CCC1CC1)Cc1c(C(F)(F)F)nc2n(-c3ccc(C(C)C)cc3Br)c3ccccc3n12` [Example 207, [8-(2-Bromo-4-isopropyl-phenyl)-2-trifluoromethyl-8H-1,3a,8-triaza-cyclopenta[α]inden-3-ylmethyl]-(2-cyclopropyl-ethyl)-ethyl-amine], the Ki was under 10 µM. With `CCN(Cc1ccccc1)Cc1c(C(F)(F)F)nc2n(-c3ccc(C(C)C)cc3Br)c3ccccc3n12` [Example 208, Benzyl-[8-(2-bromo-4-isopropyl-phenyl)-2-trifluoromethyl-8H-1,3a,8-triaza-cyclopenta[α]inden-3-ylmethyl]-ethyl-amine], the Ki was under 10 µM.
